# Like-named read-outs stand apart in the source and are kept apart here. No end group written: not given here.
# T1: recombinant MTIP-His (61–204 residues) (Plasmodium falciparum, UniProt Q8I4W8 61-204)
# T1 construct: source: E. coli BL21 (DE3), purified (Ni-NTA, native conditions, dialysed against PBS); not shown: His6, C-terminal, kept
# T1 sequence: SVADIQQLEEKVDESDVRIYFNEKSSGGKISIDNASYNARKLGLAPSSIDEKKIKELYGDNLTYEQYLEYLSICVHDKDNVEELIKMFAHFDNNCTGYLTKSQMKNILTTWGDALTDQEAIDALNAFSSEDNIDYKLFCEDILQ
# T2: ZA1S peptide
# T2 construct: also called shortened ZA1
# T2 chain: DIDIDIMHE
# B1: CFP10: Culture filtrate protein 10 kDa, Mycobacterial protein, positive control partner of ESAT6 (protein)
# chain: MAEMKTDAATLAQEAGNFERISGDLKTQIDQVESTAGSLQGQWRGAAGTAAQAAVVRFQEAANKQKQELDEISTNIRQAGVQYSRADEEQQQALSSQMGF
# B2: Myosin A tail (798–818 residues), peptide (peptide)
# chain: NKNIPSLLRVQAHIRKKMVAQ
# notes: source: acquired from Genescript (peptide)
# Tests used:
# [1] = biological target: Myosin A-pTRGnn (myosin A tail, bacterial two-hybrid fusion) (Plasmodium falciparum) (UniProt Q8IDR3); test: two-hybrid; bacterial two-hybrid, liquid β-galactosidase assay, relative Miller units, average of three assays
# myosin A tail [2] = type: cell-based, Plasmodium falciparum
# myosin A tail [3] = test: ELISA-based interaction assay, ZA1 on coated myosin A tail; type: binding, Plasmodium falciparum; details: 500 ng myosin A tail coated, ZA1-His 0–2.5 µM overlaid, 2 h 37 °C, anti-His, 450 nm, triplicates
# Excerpt: The interaction between myosin A tail and ZA1 was confirmed through multiple protein–protein interaction studies. […] For this, myosin A tail was coated on the ELSIA plates, followed by overlaying of ZA1. After stringent washing, the binding of overlaid ZA1 protein was detected using an anti-His antibody.
# (§1) All wells were put up in triplicates.
# ESAT6 [4] = test: ELISA-based specificity control with unrelated protein ESAT6; type: binding, Mycobacterium tuberculosis; details: 500 ng ESAT6 coated, test protein overlaid, 450 nm
# Excerpt: as §1
# myosin A tail [5] = test: Isothermal titration calorimetry, myosin A tail into ZA1; type: binding, Plasmodium falciparum; details: ITC200, 25 °C, phosphate buffer; 150 µM myosin A tail in syringe, 10 µM ZA1 in cell; single site model
# Protocol: ITC experiments were performed using ITC200 Microcalorimeter (Malvern, UK) at 25 °C in phosphate buffer. The cell and syringe volumes were kept 310 µL and 40 µL, respectively. The syringe was loaded with 100 µM MyoA tail for MyoA/MTIP interaction study and 150 µM for MyoA/ZA1 interaction. The sample cell was loaded with 10 µM each of MTIP and ZA1. MTIP and ZA1 were titrated using MyoA tail in injections of 2 µL each except for the first injection that was 0.4 µL. In between each titration, a 150-s interval for stirring was kept to ensure that the signal returns to baseline. Throughout the experiment, constant stirring at 300 rpm was maintained to ensure proper mixing of reaction components. For both experiments, a corresponding buffer control was also set up in which PBS was taken in the syringe. The enthalpy changes of titrations were measured, and the baseline values were subtracted from the test samples. The data analysis was carried out using Origin software and curve-fitted to obtain stoichiometry (N), dissociation constant (Kd), and enthalpy change (ƍH).
# myosin A-MTIP complex = test: Competitive ITC, pre-bound myosin A-MTIP complex into ZA1; type: binding, Plasmodium falciparum; details: 25 °C, pre-bound myosin A-MTIP complex (150 µM each) in syringe, 10 µM ZA1 in cell
# Protocol: For the competitive ITC experiment, a pre-bound complex of MyoA-MTIP in an equal molar ratio (150 µM each) was taken in the syringe. The complex was used to titrate ZA1 (10 µM) present in the cell. As a control, the pre-bound MyoA-MTIP complex was titrated in buffer only. All parameters were kept identical to the one-on-one ITC experiment. Origin software was used for data analysis and for calculating binding parameters like stoichiometry (N), binding constant (Kd), and enthalpy change (ƍH).
# MTIP = MTIP (Plasmodium falciparum, UniProt Q8I4W8); test: Competitive ITC, pre-bound Myosin A-ZA1 complex into MTIP; type: binding; details: complex in syringe, MTIP in cell
# Protocol: Figure S1: Myosin A tail and expression of MTIP. (a) Synthesized Myosin A tail peptide (2.5 kDa) resolved on Tris-tricine polyacrylamide gel.
# (b) Purified MTIP-His by Ni-NTA Column chromatography. Commassie stained 15% polyacrylamide gel. Lane M: Marker, Lane 1: Purified MTIP. (17.4 kDa). Western blot of purified MTIP-His using anti-MTIP.
# Figure S2: Negative control for ELISA and ITC experiments. (a) 500 ng non-specific Mycobacterial protein ESAT6 was coated on ELISA plates and indicated concentrations of ZA1 and MTIP were overlaid respectively. No interaction was observed between the coated and overlaid proteins. (b) The raw calorimetric data denoting the amount of heat produced following each injection of Myosin A from syringe into cell containing buffer only. No heat changes were observed when Myosin A was added into buffer. (c) Heat changes for competitive binding when pre-bound Myosin A-ZA1 complex is titrated from syringe into MTIP in the cell. […]
# break when added into MTIP. […]
# myosin A/MTIP complex [6] = test: Bacterial three-hybrid assay, disruption of myosin A/MTIP complex; type: cell-based, Plasmodium falciparum
# Excerpt: For bacterial three-hybrid experiments, MyoA-pTRG and MTIP-pBT were used to co-transform R1 competent cells. The resulting co-transformants were checked for the presence of both plasmids by PCR using gene and vector-specific primers (MyoA For/pTRG Rev, MTIP For/pBT Rev). The resulting blue colonies were used to prepare competent cells that were subsequently transformed with ZA1-pMTSA or control pMTSA plasmid and plated on X-gal indicator plates, both in the presence or absence of L-arabinose (2% w/v). The plates were incubated at 30 °C for 48 h. The color of the colonies indicated the formation or disruption of myosin A/MTIP complex. The background and validation of bacterial three-hybrid assay have been described previously.
# An arabinose gradient assay in liquid culture was performed, as described previously. Briefly, the mid-log phase culture was induced with varying concentrations of L-arabinose (0–4 mM) for 3 h at 37 °C. The cells were pelleted, and the levels of β-galactosidase were measured. E. coli BL21 (DE3) cells were induced with varying concentrations of L-arabinose (as described in the arabinose gradient assay). Whole-cell lysates of a 10 mL culture were used to analyze the expression of ZA1 using an anti-His antibody (1:2000 dilution).
# myosin A/MTIP complex [7] = test: Competitive ELISA, inhibition of myosin A/MTIP interaction; type: binding, Plasmodium falciparum; details: 500 ng myosin A tail coated, MTIP 1 µM, ZA1 0, 0.5, 1, 2, 5 µM, 2 h 37 °C, anti-MTIP, 450 nm, triplicates
# Protocol: For ELISA-based inhibition of the interaction between MyoA/MTIP complex using ZA1, 500 ng peptide was coated on Maxisorb ELISA plates, followed by overnight blocking at 4 °C. The bound peptide was overlaid with MTIP (1 µM) for 2 h at 37 °C. The plates were washed with wash buffer (1 × PBS, 0.05% Tween-20) thrice and overlaid with increasing concentrations of ZA1 (0 µM, 0.5 µM, 1 µM, 2 µM, 5 µM) for 2 h at 37 °C. […] Optical density was taken at 450 nm. All wells were put in triplicates.
# ESAT6 [8] = type: cell-based, Mycobacterium tuberculosis; details: ESAT6-pTRGnn versus CFP10-pBTnn, average of three independent assays ± standard deviation
# [9] = biological target: T1, recombinant MTIP-His (61–204 residues); test: ITC; ITC200, 25 °C, phosphate buffer; MyoA tail in the syringe (100 µM for MTIP, 150 µM for ZA1), 10 µM MTIP or ZA1 in the cell; single site model; details: both partners purified
# ZA1S peptide = biological target: T2, ZA1S peptide; test: far-Western, overlay or dot blot; 5 µg ZA1S peptide, BSA and non-specific peptide spotted on nitrocellulose; overlaid with 5 µg/mL biotinylated myosin A tail in 1% BSA/PBST, 2 h, room temperature; anti-biotin antibody; details: both partners purified
# [10] = X-gal blue-white selection, DI-EL dicodon library, 30 °C, 48 h
molecule,measurement,setting,value
"MTIP-pBT (MTIP, bacterial two-hybrid fusion) (from UniProt Q8I4W8 61-204) (domain or fragment)",relative enzyme activity (Miller Units),[1],96.1 Miller Units
SGRHVFKELDIELDIDIDIDIDIDIDIELMHDIQLDIELDIDIMHMHDIPGDIDIMHSTMHQLDIELMHPGDIDIQLFKHVAAA [ZA3],Interaction with myosin A tail in library screening,myosin A tail [2]; [10],positive interactions
SGRHVFKPGMHELDIELELDIELDIDIDIELDIDIELDIDIDIDIQLYVDIELMHELDIDIRTELELDIPGELEFDIELDIDIFKHVAAA [ZA2],Interaction with myosin A tail in library screening,myosin A tail [2]; [10],positive interactions
SGRHVFKQLDIDIDIMHELDIELELDIDIDIMHPGDIDIDIDIDIQLDIELDIMHDIDIDIMHMHQLELELDIFKHVAAA [ZA1],Interaction with myosin A tail in library screening,myosin A tail [2],positive interactions
same,Intensity of blue color on bacterial two-hybrid selection plate,"myosin A tail [2]; X-gal plate, versus the other library hits",maximum intensity of blue color
same,Relative enzyme activity (β-galactosidase),"myosin A tail [2]; myosin A-pTRGnn versus ZA1-pBTnn, average of three independent assays ± standard deviation",83.48 ± 0.82 Miller units
same,Interaction with myosin A tail,myosin A tail [3],positive interaction between myosin A and ZA1 that was concentration-dependent
same,Interaction with unrelated protein ESAT6,ESAT6 [4],no interaction was found
same,Kd,myosin A tail [5],719 nM
same,Kd,myosin A-MTIP complex,57000 nM
same,Heat changes on titration of pre-bound Myosin A-ZA1 complex into MTIP,MTIP,No heat changes are observed
same,Colony color change (disruption of myosin A/MTIP complex),"myosin A/MTIP complex [6]; E. coli triple co-transformant, X-gal plate with L-arabinose (2% w/v), 30 °C, 48 h","the color of the colonies changed from blue to white, indicating the disruption of myosin A/MTIP complex"
same,Strength of myosin A/MTIP interaction (β-galactosidase),"myosin A/MTIP complex [6]; L-arabinose gradient 0–4 mM, 3 h, 37 °C, average of three independent assays",A reduction in the strength of interaction was observed with increasing amounts of ZA1
same,Completeness of myosin A/MTIP disruption,myosin A/MTIP complex [6]; bacterial three-hybrid,we did not find a complete disruption of myosin A/MTIP complex
same,MTIP bound to myosin A tail,myosin A/MTIP complex [7],The amount of MTIP bound to myosin A tail reduced with increasing ZA1
B1,"Relative enzyme activity (β-galactosidase), positive control",ESAT6 [8]; experiment of Figure 1c,79.17 ± 1.67 Miller Units
same,"Relative enzyme activity (β-galactosidase), positive control",ESAT6 [8]; experiment of Figure 2b,98.02 ± 2.07 Miller units
B2,Kd,[9],452 nM
same,dH,[9],-4.7 kcal/mol
"NKNIPSLLRVQAHIRKKMVAQ (peptide, UniProt Q8IDR3 798-818, looked up, also: biotinylated, also called myosin A peptide; MyoA tail) [biotinylated myosin A tail]",binding result,ZA1S peptide,binds
